# Values of other authors in patent publication US20020016334A1, “Pharmaceutical composition for the treatment of attention deficit hyperactivity disorder (ADHD)” (priority 2000, published 2002).
# Columns and labels:
# [1] = test system: clinical ADHD symptoms; conditions: humans (Levin et al. 1996)
# [2] = test system: working memory deficits; conditions: brain-lesioned rats (Levin et al. 1993)
# [3] = test system: performance on serial choice tasks; conditions: animal studies (Muir et al. 1995)
smiles,measurement,setting,value
CN1CCCC1c1cccnc1 (stereo not drawn) [nicotine],Effect on clinical ADHD symptoms by Clinical Global Impression scale,[1],significantly improves
same,Effect on deficits in working memory,[2],reverse deficits in working memory
same,Effect on performance on serial choice tasks,[3],improves performance
